Data from BindingDB's records for doi:10.7270/Q2HQ3XCR (Nmmlsc, 2009).

Target: T1, Bcl-2-related protein A1 (Homo sapiens, UniProt Q16548)
T1 sequence (Q16548 whole entry): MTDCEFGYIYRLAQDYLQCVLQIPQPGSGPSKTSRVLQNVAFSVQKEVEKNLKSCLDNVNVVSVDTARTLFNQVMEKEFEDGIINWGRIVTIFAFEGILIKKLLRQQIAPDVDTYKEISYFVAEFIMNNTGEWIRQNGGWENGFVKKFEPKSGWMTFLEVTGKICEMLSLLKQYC
Experiment: inhibitors of Bim binding to Bfl-1, confirmation, biochemical, multiplexed, bead-based flow cytometry, HTS hits (AID 2080)

[1] = inactive by the depositor's call

SMILES | EC50 | EC50 [1]
Oc1ccc(NCc2ccccc2OCc2ccccc2)cc1 [SMR000231540] | 8.06 µM | –
C=CS(=O)(=O)c1sc(Cl)c(N2CCOCC2)c1[N+](=O)[O-] [4-(2-chloranyl-5-ethenylsulfonyl-4-nitro-thiophen-3-yl)morpholine] | 3.57 µM | –
O=C1C(Cl)=C(N2CCN(c3ccccc3[N+](=O)[O-])CC2)C(=O)c2ccccc21 | 2.68 µM | –
CCN1C(=O)/C(=C\C=C2/C=CC=CN2CC)SC1=S [SMR000225150] | 2.32 µM | –
COc1ccccc1-n1c(-c2ccccc2)c[nH]c1=S [MLS001007615] | 1.23 µM | –
O=[N+]([O-])c1c(NCCCO)cc(Sc2nc3ccccc3s2)c2nonc12 [MLS000520994] | 0.26 µM | –
COc1ccc(N2C(=O)C(Cl)=C(Oc3cccc(OC)c3)C2=O)cc1 [3-chloro-4-(3-methoxyphenoxy)-1-(4-methoxyphenyl)-1H-pyrrole-2,5-dione] | 1.06 µM | –
Cc1cc2nn(-c3cccc4ccccc34)nc2cc1N [SMR000076237] | 1.51 µM | –
CC(=O)Nc1ccc(-n2cc(-c3ccccc3)[nH]c2=S)cc1 [MLS001001946] | 2.05 µM | –
S=c1[nH]cc(-c2ccccc2)n1-c1ccccc1 [SMR000196363] | 3 µM | –
O=C1C(=Cc2ccco2)NC(=S)N1c1ccccc1 [(5E)-5-(furan-2-ylmethylidene)-3-phenyl-2-sulfanylideneimidazolidin-4-one] | – | 17.4 µM
Clc1nc(NCc2cccnc2)nc(N2CCOCC2)n1 [MLS000121154] | – | 20 µM
O=C(Nc1nnc(COc2ccc(Cl)cc2)s1)c1ccco1 [N-[5-[(4-chloranylphenoxy)methyl]-1,3,4-thiadiazol-2-yl]furan-2-carboxamide] | 3.09 µM | –
CNC(CC(=O)c1ccc([N+](=O)[O-])cc1)C(Cl)(Cl)Cl (configuration not stated) [4,4,4-Trichloro-3-methylamino-1-(4-nitro-phenyl)-butan-1-one] | 3.97 µM | –
O=C(NCc1ccccc1)c1ccc2nc(-c3ccco3)c(-c3ccco3)nc2c1 [2,3-bis(furan-2-yl)-N-(phenylmethyl)quinoxaline-6-carboxamide] | 8.1 µM | –
CC(=O)OCCCNc1cc(Sc2nc3ccccc3s2)c2nonc2c1[N+](=O)[O-] [MLS000521052] | 0.17 µM | –
CCN(CC)c1ccc(NC(=O)c2ccccc2Br)cc1S(=O)(=O)Nc1ccccc1OC | – | 10.7 µM
Cc1ccc(-c2cc(-c3ccc(F)cc3)c(C#N)c(N)n2)o1 | – | 20 µM
COc1ccccc1NC1=C(NC(C)=O)C(=O)c2ccccc2C1=O [N-[3-(2-methoxyanilino)-1,4-dioxonaphthalen-2-yl]acetamide] | 1.84 µM | –
Cc1cc(-c2cc(-c3ccc(Cl)cc3)nc(N)c2C#N)co1 [2-azanyl-6-(4-chlorophenyl)-4-(5-methylfuran-3-yl)pyridine-3-carbonitrile] | 4.92 µM | –
COc1cc(/N=C2\SSNC2Cl)c(OC)cc1Cl (configuration not stated) [4-chloro-N-(4-chloro-2,5-dimethoxyphenyl)-5-dithiazolidinimine] | 5.78 µM | –
CN(CCO)c1cc(Sc2nc3ccccc3s2)c2nonc2c1[N+](=O)[O-] [MLS000520995] | 0.72 µM | –
Cc1ccc(-c2cc(-c3ccc(C)o3)nc(N)c2C#N)cc1 [2-amino-6-(5-methylfuran-2-yl)-4-(4-methylphenyl)pyridine-3-carbonitrile] | 5.44 µM | –
CCN(CC)c1ccc(NC(=O)c2ccccc2F)cc1S(=O)(=O)Nc1ccccc1OC [SMR000241522] | – | 25.8 µM
COc1ccc(CCNC(=O)c2ccc3nc(-c4ccco4)c(-c4ccco4)nc3c2)cc1OC [N-[2-(3,4-dimethoxyphenyl)ethyl]-2,3-di-2-furylquinoxaline-6-carboxamide] | – | 15.4 µM
Cc1nnc(Sc2cc(NCCO)c([N+](=O)[O-])c3nonc23)s1 [2-[[7-[(5-methyl-1,3,4-thiadiazol-2-yl)thio]-4-nitro-2,1,3-benzoxadiazol-5-yl]amino]ethanol] | 0.82 µM | –
O=c1[nH]c(O)c(Cc2ccc(-c3cc(Cl)ccc3[N+](=O)[O-])o2)c(=O)[nH]1 | 0.81 µM | –
